From ChEMBL document CHEMBL6120974, “Hydrazide-Based Class I Selective HDAC Inhibitors Completely Reverse Chemoresistance Synergistically in Platinum-Resistant Solid Cancer Cells” (J Med Chem, 2024)
Calls of active or inactive are those of the source. The calls are words filed in the database; no cut-off is given here.

Columns and labels:
[1] = target: T1, Protein deacetylase HDAC6 (Homo sapiens) (UniProt Q9UBN7); experiment: Inhibition of N-terminal GST-tagged full length recombinant human HDAC6 (1 to 1215 end residues) expressed in sf9 cells at > 10 uM using ZMAL (Z-Lys(Ac)-AMC as fluorogenic substrate preincubated with compound for 60 mins followed by substrate addition and measured after 90 mins by fluorescence based microplate reader analysis relative to control; details: time 150.0 min
T1 sequence (whole entry): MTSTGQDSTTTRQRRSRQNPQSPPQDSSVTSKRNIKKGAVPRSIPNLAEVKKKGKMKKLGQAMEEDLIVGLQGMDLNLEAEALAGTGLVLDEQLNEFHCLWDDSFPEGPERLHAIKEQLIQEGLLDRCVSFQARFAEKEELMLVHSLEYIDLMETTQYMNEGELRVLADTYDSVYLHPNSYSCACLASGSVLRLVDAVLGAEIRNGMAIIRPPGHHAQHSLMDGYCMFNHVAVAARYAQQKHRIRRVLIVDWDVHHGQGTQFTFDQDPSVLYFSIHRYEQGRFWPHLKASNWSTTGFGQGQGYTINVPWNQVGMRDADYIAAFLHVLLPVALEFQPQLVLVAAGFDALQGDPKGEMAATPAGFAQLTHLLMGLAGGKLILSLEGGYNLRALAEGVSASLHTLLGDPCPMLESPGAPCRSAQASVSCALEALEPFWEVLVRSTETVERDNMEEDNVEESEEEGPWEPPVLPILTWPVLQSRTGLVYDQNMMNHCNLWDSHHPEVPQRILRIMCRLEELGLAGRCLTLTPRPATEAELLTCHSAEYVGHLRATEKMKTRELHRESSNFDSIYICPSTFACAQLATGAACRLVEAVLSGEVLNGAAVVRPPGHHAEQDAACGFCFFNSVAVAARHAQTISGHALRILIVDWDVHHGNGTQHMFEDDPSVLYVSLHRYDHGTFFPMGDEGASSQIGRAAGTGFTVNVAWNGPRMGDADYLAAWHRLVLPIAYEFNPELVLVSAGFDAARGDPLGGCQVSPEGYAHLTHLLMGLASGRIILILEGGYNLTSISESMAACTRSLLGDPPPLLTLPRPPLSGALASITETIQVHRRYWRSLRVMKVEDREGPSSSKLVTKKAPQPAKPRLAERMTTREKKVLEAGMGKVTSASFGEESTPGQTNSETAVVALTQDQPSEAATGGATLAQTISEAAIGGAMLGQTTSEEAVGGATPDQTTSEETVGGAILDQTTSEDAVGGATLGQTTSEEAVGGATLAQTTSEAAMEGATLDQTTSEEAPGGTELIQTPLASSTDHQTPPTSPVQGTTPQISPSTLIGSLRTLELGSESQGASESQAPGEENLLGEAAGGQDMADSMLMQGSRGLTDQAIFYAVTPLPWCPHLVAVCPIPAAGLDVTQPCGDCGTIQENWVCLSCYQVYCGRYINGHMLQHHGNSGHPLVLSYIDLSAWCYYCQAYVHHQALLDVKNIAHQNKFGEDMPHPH

[2] = system: Cal27CisR; experiment: Induction of apoptosis in cisplatin resistant human Cal27CisR cells assessed as decrease in p21 expression at 0.316 uM in presence of cisplatin at 16.5 uM preincubated with compound for 24 to 72 hrs prior to addition of cisplatin and measured after 24 hrs by Immunoblotting analysis; assay type: functional, cell-based; details: time 48-96 hrs
[3] = system: Cal27CisR; experiment: Induction of apoptosis in cisplatin resistant human Cal27CisR cells assessed as decrease in survivin expression at 0.316 uM in presence of cisplatin at 16.5 uM preincubated with compound for 24 to 72 hrs prior to addition of cisplatin and measured after 24 hrs by Immunoblotting analysis; assay type: functional, cell-based; details: time 48-96 hrs
[4] = system: Cal27CisR; experiment: Induction of apoptosis in cisplatin resistant human Cal27CisR cells assessed as decrease in p21 expression at 0.316 uM incubated for 24 to 72 hrs by Immunoblotting analysis; assay type: functional, cell-based; details: time 24-72 hrs
[5] = system: Cal27CisR; experiment: Induction of apoptosis in cisplatin resistant human Cal27CisR cells assessed as decrease in BIM expression at 0.316 uM incubated for 24 to 72 hrs by Immunoblotting analysis; assay type: functional, cell-based; details: time 24-72 hrs

- inhibition [1]: < 25%
SMILES: CCCNNC(=O)c1ccc(CN(CC(=O)NCc2ccccc2)C(=O)c2ccc(N(C)C)cc2)cc1
- Activity [2]: Active
- Activity [3]: Active
- Activity [4]: inactive
- Activity [5]: inactive
